Patent US20060217360A1, “Tubulysin biosynthesis gene” (priority 2002, published 2006)
Values after ≈ are worked out from the molar mass of the structure shown.

What was measured:
Format in all cases: cell-based
[1] = test system: Pt K2, Potorous tridactylis (ATCC CCL 56); experiment: Cytostatic action on animal cell line
[2] = test system: K-562 (ATCC CCL 243); experiment: Cytostatic action on human cancer cell line; settings: K-562 human cancer cell line
[3] = test system: Aspergillus niger; experiment: Agar diffusion test, spectrum of action on fungi; settings: 20 μg per test disc of 6 mm diameter
[4] = test system: Botrytis cineria; experiment: Agar diffusion test, spectrum of action on fungi; settings: 20 μg per test disc of 6 mm diameter
[5] = test system: Pythinum debaryanum; experiment: Agar diffusion test, spectrum of action on fungi; settings: 20 μg per test disc of 6 mm diameter
[6] = test system: HL-60 (ATCC-CCL 240); experiment: Cytostatic action on human cancer cell line; settings: HL-60 human cancer cell line
[7] = test system: KB-3-1 (DSM ACC 158); experiment: Cytostatic action on human cancer cell line; settings: KB-3-1 human cancer cell line
[8] = test system: L929, mouse (ATCC CCL1); experiment: Cytostatic action on animal cell line
[9] = test system: Coprinus cinereus; experiment: Agar diffusion test, spectrum of action on fungi; settings: 20 μg per test disc of 6 mm diameter

SMILES | IC50 [1] [ng/mL] | IC50 [2] [ng/mL] | Inhibition zone [3] [mm] | Inhibition zone [4] [mm] | Inhibition zone [5] [mm] | IC50 [6] [ng/mL] | IC50 [7] [ng/mL] | IC50 [8] [ng/mL] | Inhibition zone [9] [mm]
CC[C@H](C)[C@H](NC(=O)[C@H]1CCCCN1C)C(=O)N(COC(=O)CC(C)C)[C@H](C[C@@H](OC(C)=O)c1nc(C(=O)N[C@@H](Cc2ccc(O)cc2)C[C@H](C)C(=O)O)cs1)C(C)C [Tubulysin A] | 0.2 (≈ 0.237 nM) | 0.1 (≈ 0.118 nM) | 20 | 23 | 20 | 0.04 (≈ 0.0474 nM) | 0.01 (≈ 0.0118 nM) | 0.2 (≈ 0.237 nM) | 20
CCCC(=O)OCN(C(=O)[C@@H](NC(=O)[C@H]1CCCCN1C)[C@@H](C)CC)[C@H](C[C@@H](OC(C)=O)c1nc(C(=O)N[C@@H](Cc2ccc(O)cc2)C[C@H](C)C(=O)O)cs1)C(C)C [Tubulysin B] | 0.2 (≈ 0.241 nM) | 0.2 (≈ 0.241 nM) | 18 | 18 |  | 0.08 (≈ 0.0964 nM) | 0.02 (≈ 0.0241 nM) | 0.4 (≈ 0.482 nM) | 
CCC(=O)OCN(C(=O)[C@@H](NC(=O)[C@H]1CCCCN1C)[C@@H](C)CC)[C@H](C[C@@H](OC(C)=O)c1nc(C(=O)N[C@@H](Cc2ccc(O)cc2)C[C@H](C)C(=O)O)cs1)C(C)C [Tubulysin C] | 2 (≈ 2.45 nM) | 1.5 (≈ 1.84 nM) |  |  |  | 0.4 (≈ 0.49 nM) | 0.1 (≈ 0.123 nM) | 2 (≈ 2.45 nM) | 
